Results from the supplement of paper PMC10307832.

What was measured:
Assay in all cases: relative viability (nuclei count vs DMSO), 5 days (fraction); higher = more cells survive
Doramapimod + Luminespib = compound: Cc1ccc(-n2nc(C(C)(C)C)cc2NC(=O)Nc2ccc(OCCN3CCOCC3)c3ccccc23)cc1 [Doramapimod] + CCNC(=O)c1noc(-c2cc(C(C)C)c(O)cc2O)c1-c1ccc(CN2CCOCC2)cc1 [Luminespib] (partner 0.01 µM)
In short: (§1)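 Relative viability was taken as the ratio of nuclei in treated wells to nuclei in vehicle wells. Lung cancer cell lines in 1536-well plates received compounds by pin tool one day after seeding, either one drug alone or a fixed anchor-drug dose plus five library-drug doses (not always all listed) in √10 steps. Nuclei were counted on 4× images after 5 days of treatment, and values are medians of duplicate plates.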

RAF265 + Luminespib = compound: Cn1c(Nc2ccc(C(F)(F)F)cc2)nc2cc(Oc3ccnc(-c4ncc(C(F)(F)F)[nH]4)c3)ccc21 [RAF265] + CCNC(=O)c1noc(-c2cc(C(C)C)c(O)cc2O)c1-c1ccc(CN2CCOCC2)cc1 [Luminespib] (partner 0.01 µM)
In short: as §1

RAF265 + Crizotinib = compound: Cn1c(Nc2ccc(C(F)(F)F)cc2)nc2cc(Oc3ccnc(-c4ncc(C(F)(F)F)[nH]4)c3)ccc21 [RAF265] + C[C@@H](Oc1cc(-c2cnn(C3CCNCC3)c2)cnc1N)c1c(Cl)ccc(F)c1Cl [Crizotinib] (partner 1 µM)
In short: as §1

RAF265 + Phenformin = compound: Cn1c(Nc2ccc(C(F)(F)F)cc2)nc2cc(Oc3ccnc(-c4ncc(C(F)(F)F)[nH]4)c3)ccc21 [RAF265] + N=C(N)NC(=N)NCCc1ccccc1 [Phenformin] (partner 250 µM)
In short: as §1

Cell Line | relative viability (Doramapimod + Luminespib; first compound 0.02 µM) | relative viability (Doramapimod + Luminespib; first compound 0.06325 µM) | relative viability (Doramapimod + Luminespib; first compound 0.2 µM) | relative viability (Doramapimod + Luminespib; first compound 0.6325 µM) | relative viability (Doramapimod + Luminespib; first compound 2 µM) | relative viability (RAF265 + Luminespib; first compound 0.01 µM) | relative viability (RAF265 + Luminespib; first compound 0.03162 µM) | relative viability (RAF265 + Luminespib; first compound 0.1 µM) | relative viability (RAF265 + Luminespib; first compound 0.3162 µM) | relative viability (RAF265 + Luminespib; first compound 1 µM) | relative viability (RAF265 + Crizotinib; first compound 0.01 µM) | relative viability (RAF265 + Crizotinib; first compound 0.03162 µM) | relative viability (RAF265 + Crizotinib; first compound 0.1 µM) | relative viability (RAF265 + Crizotinib; first compound 0.3162 µM) | relative viability (RAF265 + Crizotinib; first compound 1 µM) | relative viability (RAF265 + Phenformin; first compound 0.01 µM) | relative viability (RAF265 + Phenformin; first compound 0.03162 µM) | relative viability (RAF265 + Phenformin; first compound 0.1 µM) | relative viability (RAF265 + Phenformin; first compound 0.3162 µM) | relative viability (RAF265 + Phenformin; first compound 1 µM)
HCC-44 | 1.06 | 1.05 | 1 | 1.24 | 0.983 | 1.17 | 0.986 | 1.06 | 1.05 | 1.05 | 0.791 | 0.679 | 0.854 | 0.83 | 0.772 | 0.183 | 0.241 | 0.209 | 0.199 | 0.19
ChaGo-K-1 | 0.594 | 0.49 | 0.595 | 0.52 | 0.541 | 0.722 | 0.666 | 0.575 | 0.545 | 0.396 | 1.15 | 1.15 | 1.18 | 1.05 | 0.792 | 0.519 | 0.511 | 0.392 | 0.405 | 0.382
COR-L23 | 0.71 | 0.659 | 0.787 | 0.741 | 0.541 | 0.637 | 0.655 | 0.539 | 0.33 | 0.324 | 0.799 | 0.75 | 0.638 | 0.465 | 0.424 | 0.507 | 0.395 | 0.344 | 0.315 | 0.258
EMC-BAC-2 | 1.28 | 1.17 | 1.12 | 1.22 | 1.15 | 1.2 | 0.998 | 1.01 | 0.819 | 0.357 | 0.747 | 0.685 | 0.617 | 0.501 | 0.234 | 0.544 | 0.457 | 0.339 | 0.336 | 0.125
LCLC-103H | 0.927 | 0.99 | 0.884 | 1.08 | 0.925 | 0.798 | 0.804 | 0.789 | 0.739 | 0.39 | 1.06 | 1.05 | 1.07 | 1 | 0.713 | 0.333 | 0.346 | 0.305 | 0.319 | 0.285
LK-2 | 0.219 | 0.202 | 0.177 | 0.158 | 0.169 | 0.172 | 0.227 | 0.196 | 0.236 | 0.191 | 0.203 | 0.222 | 0.239 | 0.237 | 0.223 | 0.445 | 0.417 | 0.385 | 0.63 | 0.402
SW 1573 | 0.235 | 0.181 | 0.207 | 0.692 | 0.185 | 0.571 | 0.179 | 0.161 | 0.131 | 0.149 | 0.869 | 0.632 | 0.842 | 0.663 | 0.406 | 0.373 | 0.336 | 0.353 | 0.296 | 0.265
NCI-H2405 | 0.639 | 0.591 | 0.794 | 0.885 | 0.522 | 0.638 | 0.812 | 0.722 | 0.476 | 0.548 | 0.846 | 0.803 | 0.872 | 0.756 | 0.566 | 0.424 | 0.372 | 0.384 | 0.344 | 0.261
NCI-H2087 | 0.174 | 0.215 | 0.195 | 0.158 | 0.234 | 0.136 | 0.209 | 0.214 | 0.162 | 0.16 | 0.71 | 0.7 | 0.818 | 0.637 | 0.692 | 0.512 | 0.413 | 0.377 | 0.331 | 0.287
NCI-H460 | 0.032 | 0.0205 | 0.0311 | 0.0341 | 0.0277 | 0.0219 | 0.0359 | 0.0291 | 0.0265 | 0.0248 | 0.972 | 0.904 | 0.743 |  | 0.881 | 0.529 | 0.463 | 0.483 | 0.399 | 0.394
LOU-NH91 | 0.408 | 0.324 | 0.28 | 0.315 | 0.282 | 0.349 | 0.323 | 0.373 | 0.349 | 0.328 | 0.758 | 0.728 | 0.752 | 0.529 | 0.59 | 0.86 | 0.639 | 0.721 | 0.64 | 0.52
NCI-H1651 | 0.76 | 0.863 | 0.87 | 0.93 | 0.758 | 1 | 0.812 | 0.971 | 0.807 | 0.714 | 0.829 | 0.912 | 0.904 | 0.88 | 0.81 | 0.369 | 0.334 | 0.316 | 0.294 | 0.295
NCI-H441 | 0.317 | 0.243 | 0.399 |  | 0.298 | 0.368 | 0.29 | 0.321 | 0.263 | 0.327 | 0.779 | 0.656 | 0.715 | 0.73 | 0.473 | 0.914 | 0.833 | 0.725 | 0.628 | 0.633
